# System: EpidermFT™ Skin Model (EFT-400) full thickness skin cultures
# Experiment: Affymetrix GeneChip HG U133 Plus 2.0 microarray global gene expression, agent-exposed vs untreated skin cultures
# Type: cell-based, human
# [1] = probe 206026_s_at, Table 3 skin structure
# [2] = probe 209126_x_at, Table 3 skin structure
# [3] = probe 209792_s_at, Table 3 skin structure
smiles,measurement,setting,value
"OCc1ccccc1O[C@@H]1O[C@H](CO)[C@@H](O)[C@H](O)[C@H]1O [Salicin, 2-(Hydroxymethyl)phenyl β-D-glucospyranoside]",Direction PTPRG,"probe 204944_at, 0.5%, 24 hr",up
same,Fold change PTPRG,"probe 204944_at, 0.5%, 24 hr",2.299
same,Direction ITGB4,"probe 204990_s_at, 0.5%, 24 hr",down
same,Fold change ITGB4,"probe 204990_s_at, 0.5%, 24 hr",4.527
same,Direction FGFBP1,"probe 205014_at, 0.5%, 24 hr",down
same,Fold change FGFBP1,"probe 205014_at, 0.5%, 24 hr",3.406
same,Direction TGFA,"probe 205015_s_at, 0.5%, 24 hr",down
same,Fold change TGFA,"probe 205015_s_at, 0.5%, 24 hr",3.134
same,Direction FGF13,"probe 205110_s_at, 0.5%, 24 hr",up
same,Fold change FGF13,"probe 205110_s_at, 0.5%, 24 hr",2.158
same,Direction PTGS1,"probe 205128_x_at, 0.5%, 24 hr",up
same,Fold change PTGS1,"probe 205128_x_at, 0.5%, 24 hr",2.327
same,Direction IL6,"probe 205207_at, 0.5%, 24 hr",up
same,Fold change IL6,"probe 205207_at, 0.5%, 24 hr",3.197
same,Direction LIF,"probe 205266_at, 0.5%, 24 hr",up
same,Fold change LIF,"probe 205266_at, 0.5%, 24 hr",3.702
same,Direction ATP2B4,"probe 205410_s_at, 0.5%, 24 hr",up
same,Fold change ATP2B4,"probe 205410_s_at, 0.5%, 24 hr",3.984
same,Direction KLK11,"probe 205470_s_at, 0.5%, 24 hr",down
same,Fold change KLK11,"probe 205470_s_at, 0.5%, 24 hr",3.318
same,Direction TAGLN,"probe 205547_s_at, 0.5%, 24 hr",up
same,Fold change TAGLN,"probe 205547_s_at, 0.5%, 24 hr",2.426
same,Direction EREG,"probe 205767_at, 0.5%, 24 hr",up
same,Fold change EREG,"probe 205767_at, 0.5%, 24 hr",2.487
same,Direction FGF7,"probe 205782_at, 0.5%, 24 hr",up
same,Fold change FGF7,"probe 205782_at, 0.5%, 24 hr",3.158
same,Direction KLK13,"probe 205783_at, 0.5%, 24 hr",down
same,Fold change KLK13,"probe 205783_at, 0.5%, 24 hr",3.619
same,Direction CLGN,"probe 205830_at, 0.5%, 24 hr",up
same,Fold change CLGN,"probe 205830_at, 0.5%, 24 hr",2.486
same,Direction KRT1,"probe 205900_at, 0.5%, 24 hr",down
same,Fold change KRT1,"probe 205900_at, 0.5%, 24 hr",4.141
same,Direction CREB5,"probe 205931_s_at, 0.5%, 24 hr",up
same,Fold change CREB5,"probe 205931_s_at, 0.5%, 24 hr",9.909
same,Direction IL15,"probe 205992_s_at, 0.5%, 24 hr",up
same,Fold change IL15,"probe 205992_s_at, 0.5%, 24 hr",4.326
same,Direction TNFAIP6,"probe 206025_s_at, 0.5%, 24 hr",up
same,Fold change TNFAIP6,"probe 206025_s_at, 0.5%, 24 hr",3.182
same,Direction TNFAIP6,[1],up
same,Fold change TNFAIP6,[1],2.52
same,Direction DSC3,"probe 206033_s_at, 0.5%, 24 hr",down
same,Fold change DSC3,"probe 206033_s_at, 0.5%, 24 hr",4.676
same,Direction BMP6,"probe 206176_at, 0.5%, 24 hr",up
same,Fold change BMP6,"probe 206176_at, 0.5%, 24 hr",7.765
same,Direction CDSN,"probe 206193_s_at, 0.5%, 24 hr",down
same,Fold change CDSN,"probe 206193_s_at, 0.5%, 24 hr",11.11
same,Direction MAP3K13,"probe 206249_at, 0.5%, 24 hr",up
same,Fold change MAP3K13,"probe 206249_at, 0.5%, 24 hr",2.252
same,Direction IL18,"probe 206295_at, 0.5%, 24 hr",down
same,Fold change IL18,"probe 206295_at, 0.5%, 24 hr",19.31
same,Direction CCL13,"probe 206407_s_at, 0.5%, 24 hr",up
same,Fold change CCL13,"probe 206407_s_at, 0.5%, 24 hr",5.516
same,Direction F2RL1,"probe 206429_at, 0.5%, 24 hr",down
same,Fold change F2RL1,"probe 206429_at, 0.5%, 24 hr",2.099
same,Direction IL24,"probe 206569_at, 0.5%, 24 hr",up
same,Fold change IL24,"probe 206569_at, 0.5%, 24 hr",8.737
same,Direction IL18R1,"probe 206618_at, 0.5%, 24 hr",up
same,Fold change IL18R1,"probe 206618_at, 0.5%, 24 hr",2.865
same,Direction HAL,"probe 206643_at, 0.5%, 24 hr",down
same,Fold change HAL,"probe 206643_at, 0.5%, 24 hr",55.87
same,Direction DGKI,"probe 206806_at, 0.5%, 24 hr",up
same,Fold change DGKI,"probe 206806_at, 0.5%, 24 hr",2.74
same,Direction IL11,"probe 206924_at, 0.5%, 24 hr",up
same,Fold change IL11,"probe 206924_at, 0.5%, 24 hr",9.694
same,Direction IL8RB,"probe 207008_at, 0.5%, 24 hr",down
same,Fold change IL8RB,"probe 207008_at, 0.5%, 24 hr",11.11
same,Direction DSC1,"probe 207324_s_at, 0.5%, 24 hr",down
same,Fold change DSC1,"probe 207324_s_at, 0.5%, 24 hr",12.95
same,Direction PTGES,"probe 207388_s_at, 0.5%, 24 hr",up
same,Fold change PTGES,"probe 207388_s_at, 0.5%, 24 hr",2.768
same,Direction CSF3,"probe 207442_at, 0.5%, 24 hr",up
same,Fold change CSF3,"probe 207442_at, 0.5%, 24 hr",11.09
same,Direction IL1RL1,"probe 207526_s_at, 0.5%, 24 hr",up
same,Fold change IL1RL1,"probe 207526_s_at, 0.5%, 24 hr",9.09
same,Direction LCE2B,"probe 207710_at, 0.5%, 24 hr",down
same,Fold change LCE2B,"probe 207710_at, 0.5%, 24 hr",200.5
same,Direction LOR,"probe 207720_at, 0.5%, 24 hr",down
same,Fold change LOR,"probe 207720_at, 0.5%, 24 hr",32.35
same,Direction KRT9,"probe 208188_at, 0.5%, 24 hr",down
same,Fold change KRT9,"probe 208188_at, 0.5%, 24 hr",2.539
same,Direction SPRR2B,"probe 208539_x_at, 0.5%, 24 hr",down
same,Fold change SPRR2B,"probe 208539_x_at, 0.5%, 24 hr",5.554
same,Direction PDE3B,"probe 208591_s_at, 0.5%, 24 hr",up
same,Fold change PDE3B,"probe 208591_s_at, 0.5%, 24 hr",2.851
same,Direction FADS1,"probe 208962_s_at, 0.5%, 24 hr",up
same,Fold change FADS1,"probe 208962_s_at, 0.5%, 24 hr",2.889
same,Direction KRT6A,"probe 209125_at, 0.5%, 24 hr",down
same,Fold change KRT6A,"probe 209125_at, 0.5%, 24 hr",2.034
same,Direction KRT6B,[2],down
same,Fold change KRT6B,[2],3.952
same,Direction TM4SF1,"probe 209387_s_at, 0.5%, 24 hr",up
same,Fold change TM4SF1,"probe 209387_s_at, 0.5%, 24 hr",3.187
same,Direction SPON1,"probe 209437_s_at, 0.5%, 24 hr",up
same,Fold change SPON1,"probe 209437_s_at, 0.5%, 24 hr",2.36
same,Direction CALM1 /// CALM2 /// CALM3,"probe 209563_x_at, 0.5%, 24 hr",down
same,Fold change CALM1 /// CALM2 /// CALM3,"probe 209563_x_at, 0.5%, 24 hr",2.029
same,Direction GATA3,"probe 209602_s_at, 0.5%, 24 hr",down
same,Fold change GATA3,"probe 209602_s_at, 0.5%, 24 hr",15.7
same,Direction CXCL2,"probe 209774_x_at, 0.5%, 24 hr",up
same,Fold change CXCL2,"probe 209774_x_at, 0.5%, 24 hr",7.546
same,Direction CASP6,"probe 209790_s_at, 0.5%, 24 hr",down
same,Fold change CASP6,"probe 209790_s_at, 0.5%, 24 hr",2.668
same,Direction KLK10,[3],down
same,Fold change KLK10,[3],4.49
same,Direction PKP3,"probe 209873_s_at, 0.5%, 24 hr",down
same,Fold change PKP3,"probe 209873_s_at, 0.5%, 24 hr",4.615
same,Direction CALML3,"probe 210020_x_at, 0.5%, 24 hr",down
same,Fold change CALML3,"probe 210020_x_at, 0.5%, 24 hr",11.27
same,Direction CSF2,"probe 210229_s_at, 0.5%, 24 hr",up
same,Fold change CSF2,"probe 210229_s_at, 0.5%, 24 hr",16.55
same,Direction FLT1,"probe 210287_s_at, 0.5%, 24 hr",up
same,Fold change FLT1,"probe 210287_s_at, 0.5%, 24 hr",3.95
same,Direction HYAL1,"probe 210619_s_at, 0.5%, 24 hr",down
same,Fold change HYAL1,"probe 210619_s_at, 0.5%, 24 hr",4.538

# Source: US20120034613A1, “Apparatus and Method for Testing Relationships Between Gene Expression and Physical Appearance of Skin” (NSE Products, Inc., priority 2010, published 2012)
